Measurements published in patent US9474759B2 (priority 2011, dated 2016).

Tests used:
HAV 3Cpro = HAV 3Cpro (Human hepatitis A virus genotype IB, UniProt P08617); test: Optimized FRET protease assay, HAV 3Cpro (Example 3); type: biochemical
Procedure: Fluorogenic substrates with Edans and Dabcyl as a donor and quencher pair were purchased from Bachem (coronavirus substrate) or synthesized by GenScript. The viral proteases and the corresponding fluorogenic substrates are listed in Table 5, along with their sources.
Stock solutions (10 mM) of the substrates and the compounds were prepared in dimethyl sulfoxide (DMSO) and diluted in assay buffer. The assay buffer comprised 20 mM HEPES buffer containing NaCl (0 mM for HAV 3Cpro and 200 mM for all other proteases), 0.4 mM EDTA, Glycerol (60% for NV and MD145 3CLpro and 30% for TGEV and 229E 3CLpro), and 6 mM (NV and MD145 3CLpro and HAV 3Cpro)_or 4 mM (all other proteases) dithiothreitol (DTT) at pH 6 (coronavirus 3CLpro) or 8 (all other proteases). Each protease was mixed with serial dilutions of each compound or with DMSO in 25 μl of assay buffer and incubated at 37° C. for 30 min, followed by the addition of 25 μl of assay buffer containing substrate. Fluorescence readings were obtained using an excitation wavelength of 360 nm and an emission wavelength of 460 nm on a fluorescence microplate reader (FLx800; Biotek, Winooski, Vt.) at 1 h following the addition of substrate. The relative fluorescence units (RFU) were determined by subtracting background values (substrate-containing well without protease) from the raw fluorescence values. […]

HAV = test: Cell culture system, HAV replication in FRhK-4 cells (Example 3); type: cell-based, hepatitis A virus

Chain of HAV 3Cpro (P08617 1520-1738): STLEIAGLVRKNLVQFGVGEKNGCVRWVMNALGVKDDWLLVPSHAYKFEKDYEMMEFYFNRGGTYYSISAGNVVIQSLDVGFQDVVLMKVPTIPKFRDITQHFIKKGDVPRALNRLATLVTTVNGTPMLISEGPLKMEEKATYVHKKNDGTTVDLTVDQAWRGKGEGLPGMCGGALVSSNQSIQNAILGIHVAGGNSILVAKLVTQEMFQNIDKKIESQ

## CC(C)C[C@H](NC(=O)OCc1ccccc1)C(=O)N[C@H](C=O)C[C@@H]1CCNC1=O [GC373]
HAV 3Cpro
  inhibitory effect on HAV 3Cpro (in words): all viral proteases except HAV 3Cpro
HAV
  effectiveness against the replication of HAV in cells (in words): no or weak effectiveness
